Results reported in US7521454B2 (Dainippon Sumitomo Pharma Co., Ltd., priority 2001, dated 2009).
Values after ≈ are worked out from the molar mass of the structure shown. Counter-ions that a name gives are not always drawn. Like-named read-outs stand apart in the source and are kept apart here.

Assays:
[1] = Gastrointestinal absorption in rat (drug level in blood by HPLC); format: in vivo; conditions: SD male rat
Method: A test compound was suspended in an aqueous solution of 0.5% carboxymethylcellulose, and the resulting suspension was orally administered to an SD male rat. Blood was sampled with the elapse of time, and the level of the drug in blood was assayed by HPLC.

[2] = system: IL-4 production; experiment: Inhibitory activity against Th2 cytokine produced from sensitized spleen cells: IL-4; format: cell-based, mouse; conditions: OVA-sensitized BALB/c spleen cells, 3 days; for activity at 0.001 µM / activity at 0.01 µM / activity at 0.1 µM / activity at 0.0001 µM: Mus musculus, 72 h; for activity at 0.001 µM / activity at 0.01 µM / activity at 0.1 µM: read-out: Inhibitory activity against IL-4 production
Method: (§1) A 7-week-old BALB/c mouse was immunized intraperitoneally with aluminum hydroxide gel (4 mg, 100 μl) having 10 μg of ovalbumin adsorbed thereon, and it was subjected to additional immunization with the same agent 14 days later. Seven days thereafter, spleen was taken out, and suspended in RPMI-1640 comprising inactivated fetal bovine serum (10%), 2-mercaptoethanol ([…]), penicillin G (100 U/ml), and streptomycin (100 μg/ml). Thus, a splenic cell suspension was prepared. Ovalbumin (0.5 mg/ml) and a test compound were added to a splenic cell suspension (5×10^6 cell/200 μl/well), and the resultant was cultured at 37° C. in the presence of 5% CO2 for 3 days. The cytokine level in the culture supernatant was quantified by ELISA. IFN-γ and IL-4 were assayed using a kit available from Amersham, and IL-5 was assayed using a kit available from Endogen.

[3] = system: Balb/c male mouse; experiment: Interferon-inducing activity in mouse (in vivo), serum interferon titer after oral dosing
[4] = system: IL-5 production; experiment: Inhibitory activity against Th2 cytokine produced from sensitized spleen cells: IL-5; format: cell-based, mouse; conditions: OVA-sensitized BALB/c spleen cells, 3 days; for activity at 0.001 µM / activity at 0.01 µM / activity at 0.1 µM / activity at 0.0001 µM: Mus musculus, 72 h; for activity at 0.001 µM / activity at 0.01 µM / activity at 0.1 µM: read-out: Inhibitory activity against IL-5 production
Method: as §1

[5] = system: mouse spleen cell; experiment: cells; format: cell-based; conditions: for minimal effective concentration: Mus musculus, 24 h, read-out: Interferon-inducing activity: Minimum effective concentration
[6] = Solubility in citric acid/disodium phosphate buffers; conditions: citric acid/disodium phosphate buffer, thermodynamic from solid
Method: 5.53% citric acid (monohydrate) and 1.75% disodium phosphate (anhydrous) were mixed together to prepare buffers (pH 2.5, 5.5, 7.4). A compound was added thereto, the mixture was stirred in a vortex mixer and subjected to ultrasonication for 30 minutes. Thereafter, the resultant was stirred in a vortex mixer again and then centrifuged at 15,000 rpm for 20 minutes. The levels of the compounds in the supernatants were then quantified by HPLC.

[7] = system: human peripheral blood mononuclear cells (PBMC); experiment: Interferon-inducing activity in human peripheral blood mononuclear cells (PBMC), IFN-α ELISA; format: cell-based; conditions: 24 h;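 further: IFN-α in pg/ml with a 1.25 pg/ml detection limit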
Method: Peripheral bloods were sampled from 5 healthy volunteers using a syringe containing heparin, and peripheral blood mononuclear cells (PBMC) were prepared by density gradient centrifugation utilizing the Lymphoprep™ (NYCOMED PHARMA AS). PBMCs were washed twice in serum-free RPMI 1640 medium and adjusted at 1×10^6 cells/ml in RPMI 1640 medium comprising 10% fetal bovine serum. The product was cultured in the presence of a test compound dissolved in dimethyl sulfoxide (final concentration: 0.1%) in an incubator in the presence of 5% CO^2 at 37° C. for 24 hours. As a control, 0.1% dimethyl sulfoxide containing no test compound was used. The culture supernatant was aseptically collected by filtration. Thereafter, the supernatant was cryopreserved at −20° C. or lower until it was subjected to the assay for IFN-inducing activity. Human IFN-α in the culture supernatant was quantified using a highly sensitive ELISA system (Amersham).

[8] = blood, dose 3 mg/kg oral, read-out: Cmax
[9] = blood, dose 3 mg/kg oral, read-out: Tmax
[10] = dosage 0.1 mg/kg oral, serum 2 h after dosing, Balb/c mouse
[11] = dosage 0.3 mg/kg oral, serum 2 h after dosing, Balb/c mouse

| Compound | activity at 0.001 µM ([2]; concentration 1 nM) [%] | activity at 0.01 µM ([2]; concentration 10 nM) [%] | activity at 0.1 µM ([2]; concentration 100 nM) [%] | Interferon-inducing activity ([3]; po, 0.1 mg/kg, 2 h) [U/ml] | Interferon-inducing activity ([3]; po, 0.3 mg/kg, 2 h) [U/ml] | activity at 0.001 µM ([4]; concentration 1 nM) [%] | activity at 0.01 µM ([4]; concentration 10 nM) [%] | activity at 0.1 µM ([4]; concentration 100 nM) [%] | minimal effective concentration [5] [µM] | solubility at 30 min ([6]; pH 2.5, aqueous buffer) [µg/mL] | solubility at 30 min ([6]; pH 5.5, aqueous buffer) [µg/mL] | solubility at 30 min ([6]; pH 7.4, aqueous buffer) [µg/mL] | Interferon-inducing activity ([3]; po, 0.03 mg/kg, 2 h) [U/ml] | activity at 0.0001 µM ([2]; concentration 0.1 nM) [%] | activity at 0.0001 µM ([4]; concentration 0.1 nM) [%] | Interferon-inducing activity (human IFN-α in culture supernatant) ([7]; concentration 1 nM) | Interferon-inducing activity (human IFN-α in culture supernatant) ([7]; concentration 3 nM) [pg/mL] | other results |
| --- | --- | --- | --- | --- | --- | --- | --- | --- | --- | --- | --- | --- | --- | --- | --- | --- | --- | --- |
| CCCCOc1nc(N)c2nc(O)n(Cc3ccc(C)nc3)c2n1 [Hydrochloride of Example 25, 2-Butoxy-8-hydroxy-9-(6-methyl-3-pyridylmethyl)adenine] | – | – | – | – | – | – | – | – | – | – | – | – | – | – | – | – | – | Cmax [1, 8]: 18 ng/mL; Tmax [1, 9]: 60 min; Cmax ([1]; blood, dose 10 mg/kg oral, read-out: Cmax): 150 ng/mL; Tmax ([1]; blood, dose 10 mg/kg oral, read-out: Tmax): 15 min |
| CCCCNc1nc(N)c2nc(O)n(Cc3ccncc3)c2n1 [Example 22, 2-Butylamino-8-hydroxy-9-(4-pyridylmethyl)adenine] | 88 | 9 | 1 | 21 ± 9 | 332 ± 83 | 115 | 50 | 18 | 0.01 | > 80000 | 73 (≈ 233 µM) | 16 (≈ 51.1 µM) | – | – | – | – | – | – |
| CC(C)Cn1cnc2c(N)nc3ccccc3c21 [Comparative Example 1, Imiquimod, reference compound] | 18 | 1 | < 1 | – | – | 54 | 15 | 10 | 0.3 | – | – | – | – | – | – | – | – | Cmax [1, 8]: 90 ng/mL; Tmax [1, 9]: 30 min |
| CCCCNc1nc(N)c2nc(O)n(Cc3cccnc3)c2n1 [Example 21, 2-Butylamino-8-hydroxy-9-(3-pyridylmethyl)adenine] | 53 | 1 | < 1 | 290 ± 134 | 571 ± 164 | 97 | 23 | 15 | 0.003 | 15000 (≈ 47900 µM) | 45 (≈ 144 µM) | 64 (≈ 204 µM) | 15 ± 8 | – | – | – | – | – |
| CCCCOc1nc(N)c2nc(O)n(Cc3ccccc3)c2n1 [Reference Compound 2, 9-benzyl-2-butoxy-8-hydroxyadenine, reference compound] | 48 | 1 | < 1 | 186 ± 42 | 317 ± 160 | 79 | 16 | 11 | 0.001 | 2 (≈ 6.38 µM) | < 1 | < 1 | 60 ± 40 | 107 | 99 | — ((−) indicates a detection limit (1.25 pg/ml) or lower) | 7 | Interferon-inducing activity (human IFN-α in culture supernatant) ([7]; concentration 10 nM): 23 ± 22 pg/mL; Interferon-inducing activity (human IFN-α in culture supernatant) ([7]; concentration 30 nM): 64 ± 40 pg/mL |
| CCCCNc1nc(N)c2nc(O)n(Cc3ccccc3)c2n1 [Reference Compound 1, 9-Benzyl-2-butylamino-8-hydroxyadenine, reference compound] | – | 109 | 24 | 55 ± 25 | 275 ± 165 | – | 92 | 69 | 0.1 | 26 (≈ 83.2 µM) | < 1 | < 1 | – | – | – | – | – | – |
| CCCCNc1nc(N)c2nc(O)n(Cc3ccccn3)c2n1 [Example 20, 2-Butylamino-8-hydroxy-9-(2-pyridylmethyl)adenine] | 106 | 23 | 2 | – | – | 106 | 71 | 19 | 0.03 | 8810 (≈ 28100 µM) | – | – | – | – | – | – | – | – |
| CCCCOc1nc(N)c2nc(O)n(Cc3ccc(OC)nc3)c2n1 [Example 2, 2-Butoxy-8-hydroxy-9-(6-methoxy-3-pyridylmethyl)adenine] | 4 | < 1 | < 1 | 1211 ± 263 | 2559 ± 495 | 37 | 14 | 12 | 0.001 | – | – | – | 388 ± 87 | 96 | 98 | – | – | Interferon-inducing activity ([3]; po, 0.01 mg/kg, 2 h): 25 ± 17 U/ml |
| 1-(2-hydroxy-2-methylpropyl)-2-methoxyethyl-1H-imidazo[4,5-c]quinoline-4-amine [Comparative Example 2, reference compound] | – | – | – | – | – | – | – | – | – | – | – | – | – | – | – | — ((−) indicates a detection limit (1.25 pg/ml) or lower) | 6 ± 5 | Inhibitory activity against IL-4 production ([2]; concentration 0.1 nM): 90 % of control; Inhibitory activity against IL-4 production ([2]; concentration 1 nM): 24 % of control; Inhibitory activity against IL-4 production ([2]; concentration 10 nM): 1 % of control; Inhibitory activity against IL-4 production ([2]; concentration 100 nM): <1 % of control; Interferon-inducing activity [3, 10]: 1638 ± 246 U/ml; Interferon-inducing activity [3, 11]: 1961 ± 950 U/ml; Inhibitory activity against IL-5 production ([4]; concentration 0.1 nM): 106 % of control; Inhibitory activity against IL-5 production ([4]; concentration 1 nM): 73 % of control; Inhibitory activity against IL-5 production ([4]; concentration 10 nM): 18 % of control; Inhibitory activity against IL-5 production ([4]; concentration 100 nM): 10 % of control; Interferon-inducing activity (human IFN-α in culture supernatant) ([7]; concentration 0.3 nM): — ((−) indicates a detection limit (1.25 pg/ml) or lower); Cmax ([1]; dose 3 mg/kg oral): 19 ng/mL; Tmax ([1]; dose 3 mg/kg oral): 60 min; Cmax ([1]; dose 10 mg/kg oral): 15 ng/mL; Tmax ([1]; dose 10 mg/kg oral): 30 min; Interferon-inducing activity: Minimum effective concentration [5]: 3 nM |
| CCCCOc1nc(N)c2nc(O)n(Cc3ccc(C)nc3)c2n1 [Example 25, 2-Butoxy-8-hydroxy-9-(6-methyl-3-pyridylmethyl)adenine] | 2 | < 1 | < 1 | – | – | 31 | 13 | 13 | 0.001 | > 1000 | 5 (≈ 15.2 µM) | 3 (≈ 9.14 µM) | – | 86 | 102 | 28 ± 24 pg/mL | 46 ± 34 | Interferon-inducing activity ([3]; dosage 0.01 mg/kg oral, serum 2 h after dosing, Balb/c mouse): 65 ± 52 U/ml; Interferon-inducing activity ([3]; dosage 0.03 mg/kg oral, serum 2 h after dosing, Balb/c mouse): 151 ± 29 U/ml; Interferon-inducing activity [3, 10]: 753 ± 140 U/ml; Interferon-inducing activity [3, 11]: 721 ± 299 U/ml; Interferon-inducing activity (human IFN-α in culture supernatant) ([7]; concentration 0.3 nM): 7 ± 3 pg/mL |
